Experiments:
human ADAMTS-5 = human ADAMTS-5 (Homo sapiens (Human), UniProt Q9UNA0); conditions: read-out: hADAMTS-5 potency IC50
Method: Finally, the fluorescence is read on the Envision (Perkin Elmer) after an incubation of 90 min at 37° C.

human TACE = human TACE (Homo sapiens (Human), UniProt P78536); conditions: read-out: TACE potency IC50
Sequence of human TACE (P78536 whole entry, looked up, change not shown): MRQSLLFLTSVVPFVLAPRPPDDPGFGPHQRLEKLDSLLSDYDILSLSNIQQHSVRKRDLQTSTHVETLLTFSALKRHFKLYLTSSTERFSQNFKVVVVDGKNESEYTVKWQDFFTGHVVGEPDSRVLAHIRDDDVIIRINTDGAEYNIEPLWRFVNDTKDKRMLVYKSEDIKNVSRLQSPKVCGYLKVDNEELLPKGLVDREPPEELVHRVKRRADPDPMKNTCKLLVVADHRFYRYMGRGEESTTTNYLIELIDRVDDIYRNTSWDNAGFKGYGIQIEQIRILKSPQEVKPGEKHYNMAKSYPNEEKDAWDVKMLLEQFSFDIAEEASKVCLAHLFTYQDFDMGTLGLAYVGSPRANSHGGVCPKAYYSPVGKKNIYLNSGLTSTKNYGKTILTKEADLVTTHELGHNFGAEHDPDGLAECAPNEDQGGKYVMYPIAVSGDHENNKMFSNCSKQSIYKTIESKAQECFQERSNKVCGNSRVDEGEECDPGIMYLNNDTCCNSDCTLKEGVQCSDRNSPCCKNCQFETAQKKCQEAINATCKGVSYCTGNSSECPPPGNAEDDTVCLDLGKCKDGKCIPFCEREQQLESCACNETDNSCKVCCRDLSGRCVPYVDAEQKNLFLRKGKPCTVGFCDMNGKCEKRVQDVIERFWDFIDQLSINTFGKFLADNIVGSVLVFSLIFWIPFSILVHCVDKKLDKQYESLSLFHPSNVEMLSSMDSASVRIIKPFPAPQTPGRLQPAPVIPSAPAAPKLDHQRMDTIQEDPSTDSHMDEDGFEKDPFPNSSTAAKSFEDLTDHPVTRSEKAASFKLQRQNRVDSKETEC

Sequence of human ADAMTS-5 (Q9UNA0 262-930): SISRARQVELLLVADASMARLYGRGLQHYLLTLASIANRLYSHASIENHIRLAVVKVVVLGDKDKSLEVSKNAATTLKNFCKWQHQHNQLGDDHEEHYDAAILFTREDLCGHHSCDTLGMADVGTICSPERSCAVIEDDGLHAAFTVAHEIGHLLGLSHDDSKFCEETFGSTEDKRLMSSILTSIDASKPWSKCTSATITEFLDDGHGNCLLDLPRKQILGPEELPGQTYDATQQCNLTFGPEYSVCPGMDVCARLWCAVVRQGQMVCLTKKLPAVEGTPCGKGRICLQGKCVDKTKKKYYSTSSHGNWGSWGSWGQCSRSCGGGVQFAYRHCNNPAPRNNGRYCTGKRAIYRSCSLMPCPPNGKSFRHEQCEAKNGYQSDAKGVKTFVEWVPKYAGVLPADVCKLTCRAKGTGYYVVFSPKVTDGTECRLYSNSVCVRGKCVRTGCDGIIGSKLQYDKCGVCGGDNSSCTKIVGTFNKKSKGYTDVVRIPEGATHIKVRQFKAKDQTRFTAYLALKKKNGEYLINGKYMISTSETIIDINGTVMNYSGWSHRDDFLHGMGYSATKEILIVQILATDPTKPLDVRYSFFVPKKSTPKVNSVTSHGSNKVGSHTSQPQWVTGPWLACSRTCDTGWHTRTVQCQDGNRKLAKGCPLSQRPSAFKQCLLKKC

Structure (SMILES)	IC50 (human ADAMTS-5) [nM]	IC50 (human TACE) [nM]
C[C@H]1CN(C(=O)CCC2(C3CC3)NC(=O)NC2=O)CCN1c1cc(Cl)cc(Cl)n1 (stereo partly drawn) [compound 257, 5-cyclopropyl-5-[3-[(3S)-4-(4,6-dichloro-2-pyridyl)-3-methyl-piperazin-1-yl]-3-oxo-propyl]imidazolidine-2,4-dione]	1570	> 4000
C[C@H]1CN(C(=O)CCC2(C3CC3)NC(=O)NC2=O)CCN1c1cc(Cl)nc(Cl)c1 (stereo partly drawn) [compound 258, 5-cyclopropyl-5-[3-[(3S)-4-(2,6-dichloro-4-pyridyl)-3-methyl-piperazin-1-yl]-3-oxo-propyl]imidazolidine-2,4-dione]	1530	> 20000
CC(CC1(c2ccccn2)NC(=O)NC1=O)C(=O)N1CCN(c2cccc(F)c2)[C@@H](C)C1 (stereo partly drawn) [compound 263, 5-[3-[(3S)-4-(3-fluorophenyl)-3-methyl-piperazin-1-yl]-2-methyl-3-oxo-propyl]-5-(2-pyridyl)imidazolidine-2,4-dione]	19	2620
CC(CC1(c2ccccn2)NC(=O)NC1=O)C(=O)N1CCN(c2ccc(F)c(F)c2)[C@@H](C)C1 (stereo partly drawn) [compound 264, 5-[3-[(3S)-4-(3,4-difluorophenyl)-3-methyl-piperazin-1-yl]-2-methyl-3-oxo-propyl]-5-(2-pyridyl)imidazolidine-2,4-dione]	19	> 4000
Cc1cc(N2CCN(C(=O)CCC3(C)NC(=O)NC3=O)CC2)c(F)cc1Cl (centres unmarked) [compound 267, 5-[3-[4-(4-chloro-2-fluoro-5-methyl-phenyl)piperazin-1-yl]-3-oxo-propyl]-5-methyl-imidazolidine-2,4-dione]	3080	> 4000
CC(CC1(c2ccccn2)NC(=O)NC1=O)C(=O)N1CCN(c2cccc(Cl)c2)[C@@H](C)C1 (stereo partly drawn) [compound 269, 5-[3-[(3S)-4-(3-chlorophenyl)-3-methyl-piperazin-1-yl]-2-methyl-3-oxo-propyl]-5-(2-pyridyl)imidazolidine-2,4-dione]	19	840
CC(CC1(C)NC(=O)NC1=O)C(=O)N1C[C@H](C)N(c2cc(Cl)cc(Cl)c2)[C@@H](C)C1 (stereo partly drawn) [compound 271, 5-[3-[(3S,5S)-4-(3,5-dichlorophenyl)-3,5-dimethyl-piperazin-1-yl]-2-methyl-3-oxo-propyl]-5-methyl-imidazolidine-2,4-dione]	1300	> 20000
C[C@H]1CN(C(=O)CCC2(C3CC3)NC(=O)NC2=O)CCN1c1ccc2[nH]ccc2c1 (stereo partly drawn) [compound 274, 5-cyclopropyl-5-[3-[(3S)-4-(1H-indol-5-yl)-3-methyl-piperazin-1-yl]-3-oxo-propyl]imidazolidine-2,4-dione]	> 4000	> 20000
CC(CC1(C)NC(=O)NC1=O)C(=O)N1CCN(c2cccnc2)[C@@H](C)C1 (stereo partly drawn) [compound 275, 5-methyl-5-[2-methyl-3-[(3S)-3-methyl-4-(3-pyridyl)piperazin-1-yl]-3-oxo-propyl]imidazolidine-2,4-dione]	266	> 20000
O=C1NC(=O)C(CCC(=O)N2CCN(c3ccncc3)CC2)(C2CC2)N1 (centres unmarked) [compound 278, 5-cyclopropyl-5-[3-oxo-3-[4-(4-pyridyl)piperazin-1-yl]propyl]imidazolidine-2,4-dione]	> 20000	> 20000
COCC1(CC(C)C(=O)N2CCN(c3cc(F)c(Cl)c(F)c3)CC2)NC(=O)NC1=O (centres unmarked) [compound 279, 5-[3-[4-(4-chloro-3,5-difluoro-phenyl)piperazin-1-yl]-2-methyl-3-oxo-propyl]-5-(methoxymethyl)imidazolidine-2,4-dione]	19	2990
C[C@H]1CN(C(=O)CCC2(C3CC3)NC(=O)NC2=O)CCN1c1cccc2ccoc12 (stereo partly drawn) [compound 280, 5-[3-[(3S)-4-(benzofuran-7-yl)-3-methyl-piperazin-1-yl]-3-oxo-propyl]-5-cyclopropyl-imidazolidine-2,4-dione]	275	> 20000
C[C@H]1CN(C(=O)CCC2(C3CC3)NC(=O)NC2=O)CCN1c1cccc(-c2cnn(C)c2)c1 (stereo partly drawn) [compound 283, 5-cyclopropyl-5-[3-[(3S)-3-methyl-4-[3-(1-methylpyrazol-4-yl)phenyl]piperazin-1-yl]-3-oxo-propyl]imidazolidine-2,4-dione]	1080	> 20000
C[C@H]1CN(C(=O)CCC2(C3CC3)NC(=O)NC2=O)CCN1c1nccc(Cl)n1 (stereo partly drawn) [compound 284, 5-[3-[(3S)-4-(4-chloropyrimidin-2-yl)-3-methyl-piperazin-1-yl]-3-oxo-propyl]-5-cyclopropyl-imidazolidine-2,4-dione]	> 12000	> 20000
C[C@H]1CN(C(=O)CCC2(C3CC3)NC(=O)NC2=O)CCN1c1ccc(Cl)nn1 (stereo partly drawn) [compound 285, 5-[3-[(3S)-4-(6-chloropyridazin-3-yl)-3-methyl-piperazin-1-yl]-3-oxo-propyl]-5-cyclopropyl-imidazolidine-2,4-dione]	892	> 4000
C[C@H]1CN(C(=O)CCC2(C3CC3)NC(=O)NC2=O)CCN1c1cnccn1 (stereo partly drawn) [compound 286, 5-cyclopropyl-5-[3-[(3S)-3-methyl-4-pyrazin-2-yl-piperazin-1-yl]-3-oxo-propyl]imidazolidine-2,4-dione]	> 4000	> 20000
C[C@H]1CN(C(=O)CCC2(C3CC3)NC(=O)NC2=O)CCN1c1cnc2ccccc2c1 (stereo partly drawn) [compound 289, 5-cyclopropyl-5-[3-[(3S)-3-methyl-4-(3-quinolyl)piperazin-1-yl]-3-oxo-propyl]imidazolidine-2,4-dione]	97	> 4000
COCC(CC1(C)NC(=O)NC1=O)C(=O)N1CCN(c2cccc(F)c2)[C@@H](C)C1 (stereo partly drawn) [compound 292, 5-[3-[(3S)-4-(3-fluorophenyl)-3-methyl-piperazin-1-yl]-2-(methoxymethyl)-3-oxo-propyl]-5-methyl-imidazolidine-2,4-dione]	48	> 4000
C[C@H]1CN(C(=O)CCC2(C3CC3)NC(=O)NC2=O)CCN1c1ccc2[nH]ncc2c1 (stereo partly drawn) [compound 296, 5-cyclopropyl-5-[3-[(3S)-4-(1H-indazol-5-yl)-3-methyl-piperazin-1-yl]-3-oxo-propyl]imidazolidine-2,4-dione]	> 4000	> 20000
C[C@H]1CN(C(=O)CCC2(C3CC3)NC(=O)NC2=O)CCN1c1ccc2c(cnn2C)c1 (stereo partly drawn) [compound 297, 5-cyclopropyl-5-[3-[(3S)-3-methyl-4-(1-methylindazol-5-yl)piperazin-1-yl]-3-oxo-propyl]imidazolidine-2,4-dione]	> 3620	> 20000
Cc1cc(N2CCN(C(=O)CCC3(C4CC4)NC(=O)NC3=O)C[C@@H]2C)ccc1F (stereo partly drawn) [compound 298, 5-cyclopropyl-5-[3-[(3S)-4-(4-fluoro-3-methyl-phenyl)-3-methyl-piperazin-1-yl]-3-oxo-propyl]imidazolidine-2,4-dione]	192	> 20000
Cc1ccc(N2CCN(C(=O)CCC3(C4CC4)NC(=O)NC3=O)C[C@@H]2C)cc1F (stereo partly drawn) [compound 299, 5-cyclopropyl-5-[3-[(3S)-4-(3-fluoro-4-methyl-phenyl)-3-methyl-piperazin-1-yl]-3-oxo-propyl]imidazolidine-2,4-dione]	114	> 20000

— US9926281B2 (priority 2014, dated 2018)
